Laboratory results reported in ChEMBL document CHEMBL1201862, “PubChem BioAssay data set” (2004).
Several values for one entry are separate records, joined by “and”; a condition that tells them apart may be missing. Equal entries are not always repeated. Activity calls are given as the source filed them.

Experiments:
[1] = biological target: Melanin-concentrating hormone receptor 1 (Homo sapiens, UniProt Q99705); test: Late-stage fluorescence-based counterscreen for antagonists of the G-protein coupled receptor 7 (GPR7): cell-based dose response assay to identify antagonists of the melanin-concentrating hormone receptor 1 (MCHR1) Set 5.; type: functional
[2] = biological target: T1, Neuropeptides B/W receptor type 1 (Homo sapiens, UniProt P48145); test: human NPBW1 receptor blockade, IC50 – cell-based, fluorescence, dose response, set 5, late-stage follow-up (AID 588566); type: functional
T1 sequence (P48145 whole entry): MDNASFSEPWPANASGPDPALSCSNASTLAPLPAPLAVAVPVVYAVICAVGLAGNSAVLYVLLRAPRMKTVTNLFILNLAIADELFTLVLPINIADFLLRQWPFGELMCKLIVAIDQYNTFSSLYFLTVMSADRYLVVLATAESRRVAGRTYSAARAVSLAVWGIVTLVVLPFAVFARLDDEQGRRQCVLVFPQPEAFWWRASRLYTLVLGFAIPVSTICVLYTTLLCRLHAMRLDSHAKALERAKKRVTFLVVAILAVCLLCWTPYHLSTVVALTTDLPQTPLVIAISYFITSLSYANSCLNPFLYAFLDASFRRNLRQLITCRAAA

[3] = biological target: G protein-coupled receptor kinase 5 (Homo sapiens, UniProt P34947); test: Navigating the Kinome. Panel member name: GPRK5; type: functional
[4] = biological target: Tyrosine-protein kinase BTK (Homo sapiens, UniProt Q06187); type: functional
[5] = biological target: Serine/threonine-protein kinase TAO1 (Homo sapiens, UniProt Q7L7X3); type: functional
[6] = biological target: Activated CDC42 kinase 1 (Homo sapiens, UniProt Q07912); test: Navigating the Kinome. Panel member name: ACK1; type: functional
[7] = biological target: Casein kinase I isoform alpha (Homo sapiens, UniProt P48729); type: functional
[8] = biological target: Inhibitor of nuclear factor kappa-B kinase subunit epsilon (Homo sapiens, UniProt Q14164); test: Navigating the Kinome. Panel member name: IKBKE; type: functional
[9] = biological target: Macrophage-stimulating protein receptor (Homo sapiens, UniProt Q04912); test: Navigating the Kinome. Panel member name: MST1R; type: functional
[10] = biological target: Mast/stem cell growth factor receptor Kit (Homo sapiens, UniProt P10721); type: functional;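 further: KIT entry within a kinase panel assay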
[11] = biological target: Tyrosine-protein kinase Fyn (Homo sapiens, UniProt P06241); type: functional
[12] = biological target: Serine/threonine-protein kinase D3 (Homo sapiens, UniProt O94806); type: functional;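 further: determined within a kinase panel screen, with PRKCN as the panel member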
[13] = biological target: T2, Glycogen synthase kinase-3 beta (Homo sapiens, UniProt P49841); type: functional;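 further: value comes from a broad kinome profiling panel, with GSK3B as the panel member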
[14] = biological target: Mitogen-activated protein kinase 14 (Homo sapiens, UniProt Q16539); type: functional;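 further: part of a kinome-wide panel, MAPK14 entry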
[15] = biological target: Calcium/calmodulin-dependent protein kinase type II subunit alpha (Homo sapiens, UniProt Q9UQM7); test: Navigating the Kinome. Panel member name: CAMK2A; type: functional
[16] = biological target: Tyrosine-protein kinase Lck (Homo sapiens, UniProt P06239); type: functional;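 further: lck was assayed as one member of a kinase panel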
[17] = biological target: ALK tyrosine kinase receptor (Homo sapiens, UniProt Q9UM73); type: functional;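 further: ALK tested as one member of a kinase panel screen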
[18] = biological target: T3, Glycogen synthase kinase-3 alpha (Homo sapiens, UniProt P49840); type: functional;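 further: GSK3A result taken from a broad kinome-wide kinase panel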
[19] = biological target: Death-associated protein kinase 3 (Homo sapiens, UniProt O43293); type: functional;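 further: measured as one member of a kinome-wide profiling panel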
[20] = biological target: Tyrosine-protein kinase ABL1 (Homo sapiens, UniProt P00519); type: functional
[21] = biological target: Ribosomal protein S6 kinase alpha-3 (Homo sapiens, UniProt P51812); type: functional;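 further: measured within a kinome-wide profiling panel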
[22] = biological target: Mitogen-activated protein kinase kinase kinase kinase 4 (Homo sapiens, UniProt O95819); type: functional
[23] = biological target: Mitogen-activated protein kinase 9 (Homo sapiens, UniProt P45984); type: functional;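 further: value from a kinome panel profiling assay, MAPK9 panel entry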
[24] = biological target: Serine/threonine-protein kinase N2 (Homo sapiens, UniProt Q16513); type: functional
[25] = biological target: Tyrosine-protein kinase JAK3 (Homo sapiens, UniProt P52333); type: functional
[26] = biological target: Serine/threonine-protein kinase pim-1 (Homo sapiens, UniProt P11309); type: functional
[27] = biological target: Mitogen-activated protein kinase kinase kinase kinase 5 (Homo sapiens, UniProt Q9Y4K4); type: functional;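 further: measured as one member of a kinome-spanning kinase panel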
[28] = biological target: Fibroblast growth factor receptor 1 (Homo sapiens, UniProt P11362); type: functional
[29] = biological target: Dual specificity protein kinase CLK2 (Homo sapiens, UniProt P49760); type: functional
[30] = biological target: Cyclin-dependent kinase 8 (Homo sapiens, UniProt P49336); test: Navigating the Kinome. Panel member name: CDK8; type: functional
[31] = biological target: Focal adhesion kinase 1 (Homo sapiens, UniProt Q05397); type: functional;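 further: measured as one member of a kinome panel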
[32] = biological target: BDNF/NT-3 growth factors receptor (Homo sapiens, UniProt Q16620); type: functional;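 further: NTRK2 measured as one member of a broad kinome-wide kinase profiling panel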
[33] = biological target: Vascular endothelial growth factor receptor 1 (Homo sapiens, UniProt P17948); type: functional;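 further: measured within a kinome-wide profiling panel, FLT1 as the panel member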
[34] = biological target: Mitogen-activated protein kinase 8 (Homo sapiens, UniProt P45983); type: functional;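 further: value comes from one member of a kinome-wide kinase profiling panel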
[35] = biological target: Cytochrome P450 2C9 (Homo sapiens, UniProt P11712)
[36] = biological target: Cytochrome P450 2C19 (Homo sapiens, UniProt P33261); test: Cytochrome panel assay with activity outcomes. Panel member name: p450-cyp2c19 Compounds with AC50 equal or less than 10 uM are considered active; type: functional; details: read-out: AC50
[37] = biological target: T2, Glycogen synthase kinase-3 beta; test: inhibition of human GSK3B activity – biochemical, microfluidics, dry powder samples, set 2, dose response (AID 623989); type: functional
[38] = biological target: T3, Glycogen synthase kinase-3 alpha; test: GSK3A enzyme blockers, homolog specificity check – biochemical, microfluidics, dry powder samples, set 2, selectivity assay for GSK3beta inhibitor project, dose response (AID 623978); type: functional
[39] = biological target: Cell division cycle 7-related protein kinase (Homo sapiens, UniProt O00311); type: functional;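 further: value obtained from a kinome-wide kinase panel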
[40] = biological target: Dual specificity protein kinase CLK4 (Homo sapiens, UniProt Q9HAZ1); type: functional
[41] = biological target: cAMP-dependent protein kinase catalytic subunit alpha (Homo sapiens, UniProt P17612); type: functional
[42] = biological target: Interleukin-1 receptor-associated kinase 4 (Homo sapiens, UniProt Q9NWZ3); type: functional
[43] = biological target: Homeodomain-interacting protein kinase 2 (Homo sapiens, UniProt Q9H2X6); type: functional;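 further: measured within a kinome-wide kinase profiling panel, HIPK2 being one panel member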
[44] = NIH3T3 cell viability loss – ATP luminescence, mouse fibroblasts, counter-screen, dose response (AID 2010); type: functional, cell-based;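 further: cells exposed to compound for about 90 hours before reading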
[45] = biological target: T4, DNA dC->dU-editing enzyme APOBEC-3G (Homo sapiens, UniProt Q9HC16); test: inhibition of APOBEC3G ssDNA deamination – biochemical, fluorescence, single-stranded DNA substrate, SAR follow-up (AID 602136); type: functional; details: read-out: IC50_Mean
[46] = biological target: T5, DNA dC->dU-editing enzyme APOBEC-3A (Homo sapiens, UniProt P31941); test: SAR analysis of small molecule inhibitors of APOBEC3A DNA Deaminase via a fluorescence-based single-stranded DNA deaminase assay.; type: functional; details: read-out: IC50_Mean
[47] = alpha-synuclein stem-loop luciferase translation blockers – H4 neuroglioma cells, luminescence, confirmation (AID 1988); type: functional, cell-based
[48] = biological target: T4, DNA dC->dU-editing enzyme APOBEC-3G; test: SAR analysis of small molecule inhibitors of APOBEC3G DNA Deaminase via a fluorescence-based single-stranded DNA deaminase assay - Set 2.; type: functional; details: read-out: IC50_Mean
[49] = tested on: INS1; test: INS-1E survival protection against cytokine death – cell-based, luminescence, retest, dose response (AID 449756); type: functional; details: Rattus norvegicus;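 further: cell death triggered by IL-1 beta plus TNF-alpha plus IFN-gamma mixture; protective hits raise ATP signal compared with cytokine alone wells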
[50] = biological target: T5, DNA dC->dU-editing enzyme APOBEC-3A; test: SAR analysis of small molecule inhibitors of APOBEC3A DNA Deaminase via a fluorescence-based single-stranded DNA deaminase assay - Set 2.; type: functional; details: read-out: IC50_Mean
[51] = biological target: Beta-lactamase (Pseudomonas aeruginosa, UniProt Q79MP6);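 further: biochemical dose-response test of metallo-beta-lactamase enzyme inhibition, read out by epi-absorbance; purified recombinant IMP-1 metallo-beta-lactamase with nitrocefin as substrate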
[52] = luciferase reporter signal suppression in cells – H4 neuroglioma cells, luminescence, dose response (AID 1990); type: functional, cell-based
[53] = biological target: T4, DNA dC->dU-editing enzyme APOBEC-3G; type: functional
[54] = Trypanosoma cruzi growth suppression in host cells – NIH3T3 host cells, beta-gal luminescence, confirmation (AID 2044); type: functional, cell-based;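 further: intracellular parasites grown in NIH/3T3 mouse fibroblasts as host cells; luminescent beta-galactosidase reporter signal from transgenic T. cruzi replicating inside host cells; inhibitors lower the luminescence signal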
[55] = biological target: FAD-linked sulfhydryl oxidase ALR (Homo sapiens, UniProt P55789); test: ALR-catalysed DTT oxidation blockers – biochemical, H2O2 detection, luminescence, cherry-pick, dose response (AID 493248)
[56] = Luminescence Cell-Based Dose Response HTS to Identify Inhibitors of 5'UTR Stem-Loop Driven Prion Protein mRNA Translation in H4 Neuroglioblastoma Cells. [Related pubchem assays: 1827 (Project Summary), 1813 (Primary HTS)]; type: functional
[57] = biological target: Beta-lactamase (Salmonella choleraesuis (strain SC-B67), UniProt Q5J463)
[58] = biological target: T5, DNA dC->dU-editing enzyme APOBEC-3A; test: Dose Response confirmation of small molecule APOBEC3A DNA Deaminase Inhibitors via a fluorescence-based single-stranded DNA deaminase assay. [Related pubchem assays (depositor defined):AID493011, AID493024]; type: functional

T4 sequence (Q9HC16 whole entry): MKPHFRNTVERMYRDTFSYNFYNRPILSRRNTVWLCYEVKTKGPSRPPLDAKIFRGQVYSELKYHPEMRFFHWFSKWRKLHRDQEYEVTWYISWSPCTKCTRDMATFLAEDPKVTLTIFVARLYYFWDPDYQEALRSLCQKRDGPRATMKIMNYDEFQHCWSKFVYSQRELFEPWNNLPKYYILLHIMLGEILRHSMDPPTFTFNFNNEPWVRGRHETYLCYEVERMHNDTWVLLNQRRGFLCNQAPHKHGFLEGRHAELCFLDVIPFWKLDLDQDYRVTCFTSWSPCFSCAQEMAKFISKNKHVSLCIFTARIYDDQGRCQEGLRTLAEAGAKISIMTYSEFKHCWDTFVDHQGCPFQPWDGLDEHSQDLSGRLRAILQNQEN
T2 sequence (P49841 whole entry): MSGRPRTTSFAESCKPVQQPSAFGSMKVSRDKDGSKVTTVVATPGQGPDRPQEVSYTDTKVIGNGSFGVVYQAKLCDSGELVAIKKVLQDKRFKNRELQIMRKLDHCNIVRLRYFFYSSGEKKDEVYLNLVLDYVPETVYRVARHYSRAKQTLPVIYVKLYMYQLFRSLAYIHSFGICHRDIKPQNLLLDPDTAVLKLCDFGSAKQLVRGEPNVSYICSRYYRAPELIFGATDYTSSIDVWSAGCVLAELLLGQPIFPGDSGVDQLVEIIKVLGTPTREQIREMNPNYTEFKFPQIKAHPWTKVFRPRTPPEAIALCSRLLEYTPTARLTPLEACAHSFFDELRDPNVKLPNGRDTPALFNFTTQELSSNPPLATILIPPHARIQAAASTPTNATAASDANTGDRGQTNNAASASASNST
T5 sequence (P31941 whole entry): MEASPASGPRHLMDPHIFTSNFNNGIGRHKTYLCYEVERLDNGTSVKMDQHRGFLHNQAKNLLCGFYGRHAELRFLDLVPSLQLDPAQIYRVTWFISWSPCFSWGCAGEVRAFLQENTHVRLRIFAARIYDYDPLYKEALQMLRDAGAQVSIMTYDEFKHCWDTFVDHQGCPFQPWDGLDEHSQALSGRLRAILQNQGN
Mitogen-activated protein kinase kinase kinase kinase 4, sequence (O95819 whole entry): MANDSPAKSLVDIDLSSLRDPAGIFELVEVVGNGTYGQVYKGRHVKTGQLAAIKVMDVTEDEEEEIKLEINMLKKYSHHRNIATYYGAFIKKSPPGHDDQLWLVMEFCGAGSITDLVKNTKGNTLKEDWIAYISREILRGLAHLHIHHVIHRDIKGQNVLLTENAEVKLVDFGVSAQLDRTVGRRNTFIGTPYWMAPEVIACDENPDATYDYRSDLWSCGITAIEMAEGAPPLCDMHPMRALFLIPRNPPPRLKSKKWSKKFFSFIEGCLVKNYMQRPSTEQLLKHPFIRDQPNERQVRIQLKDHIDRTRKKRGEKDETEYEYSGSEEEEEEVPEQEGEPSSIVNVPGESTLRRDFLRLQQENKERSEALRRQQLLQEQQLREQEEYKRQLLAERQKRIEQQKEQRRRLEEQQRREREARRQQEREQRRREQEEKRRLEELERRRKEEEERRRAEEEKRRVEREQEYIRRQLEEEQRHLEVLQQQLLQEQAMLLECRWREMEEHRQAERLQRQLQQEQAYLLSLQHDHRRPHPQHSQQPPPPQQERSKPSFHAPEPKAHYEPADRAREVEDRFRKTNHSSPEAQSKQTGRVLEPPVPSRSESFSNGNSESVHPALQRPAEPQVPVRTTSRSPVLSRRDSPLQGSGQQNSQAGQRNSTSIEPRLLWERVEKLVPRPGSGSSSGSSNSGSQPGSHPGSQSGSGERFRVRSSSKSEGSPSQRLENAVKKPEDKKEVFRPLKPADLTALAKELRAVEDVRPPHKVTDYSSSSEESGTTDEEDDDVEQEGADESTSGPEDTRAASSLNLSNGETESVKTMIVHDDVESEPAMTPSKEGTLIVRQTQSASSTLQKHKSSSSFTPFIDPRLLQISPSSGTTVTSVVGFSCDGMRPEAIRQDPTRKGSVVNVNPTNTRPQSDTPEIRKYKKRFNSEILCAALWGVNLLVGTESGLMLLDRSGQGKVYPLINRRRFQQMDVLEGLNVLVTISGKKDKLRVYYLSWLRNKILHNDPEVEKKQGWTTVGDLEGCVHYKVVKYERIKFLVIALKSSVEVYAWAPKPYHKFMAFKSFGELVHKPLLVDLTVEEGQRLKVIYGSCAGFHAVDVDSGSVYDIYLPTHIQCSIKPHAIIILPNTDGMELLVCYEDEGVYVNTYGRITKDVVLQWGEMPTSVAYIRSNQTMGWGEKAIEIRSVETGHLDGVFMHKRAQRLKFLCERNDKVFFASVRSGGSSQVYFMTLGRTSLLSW
Serine/threonine-protein kinase pim-1, sequence (P11309 whole entry): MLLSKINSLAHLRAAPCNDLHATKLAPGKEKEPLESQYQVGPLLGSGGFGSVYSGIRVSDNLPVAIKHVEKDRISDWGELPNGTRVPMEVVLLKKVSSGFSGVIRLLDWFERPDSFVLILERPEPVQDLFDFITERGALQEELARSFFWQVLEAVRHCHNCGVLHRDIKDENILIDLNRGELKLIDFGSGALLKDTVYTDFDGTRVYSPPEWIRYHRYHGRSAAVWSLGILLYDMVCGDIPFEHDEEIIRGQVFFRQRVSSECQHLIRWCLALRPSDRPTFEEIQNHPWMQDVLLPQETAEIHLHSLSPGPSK
Focal adhesion kinase 1, sequence (Q05397 whole entry): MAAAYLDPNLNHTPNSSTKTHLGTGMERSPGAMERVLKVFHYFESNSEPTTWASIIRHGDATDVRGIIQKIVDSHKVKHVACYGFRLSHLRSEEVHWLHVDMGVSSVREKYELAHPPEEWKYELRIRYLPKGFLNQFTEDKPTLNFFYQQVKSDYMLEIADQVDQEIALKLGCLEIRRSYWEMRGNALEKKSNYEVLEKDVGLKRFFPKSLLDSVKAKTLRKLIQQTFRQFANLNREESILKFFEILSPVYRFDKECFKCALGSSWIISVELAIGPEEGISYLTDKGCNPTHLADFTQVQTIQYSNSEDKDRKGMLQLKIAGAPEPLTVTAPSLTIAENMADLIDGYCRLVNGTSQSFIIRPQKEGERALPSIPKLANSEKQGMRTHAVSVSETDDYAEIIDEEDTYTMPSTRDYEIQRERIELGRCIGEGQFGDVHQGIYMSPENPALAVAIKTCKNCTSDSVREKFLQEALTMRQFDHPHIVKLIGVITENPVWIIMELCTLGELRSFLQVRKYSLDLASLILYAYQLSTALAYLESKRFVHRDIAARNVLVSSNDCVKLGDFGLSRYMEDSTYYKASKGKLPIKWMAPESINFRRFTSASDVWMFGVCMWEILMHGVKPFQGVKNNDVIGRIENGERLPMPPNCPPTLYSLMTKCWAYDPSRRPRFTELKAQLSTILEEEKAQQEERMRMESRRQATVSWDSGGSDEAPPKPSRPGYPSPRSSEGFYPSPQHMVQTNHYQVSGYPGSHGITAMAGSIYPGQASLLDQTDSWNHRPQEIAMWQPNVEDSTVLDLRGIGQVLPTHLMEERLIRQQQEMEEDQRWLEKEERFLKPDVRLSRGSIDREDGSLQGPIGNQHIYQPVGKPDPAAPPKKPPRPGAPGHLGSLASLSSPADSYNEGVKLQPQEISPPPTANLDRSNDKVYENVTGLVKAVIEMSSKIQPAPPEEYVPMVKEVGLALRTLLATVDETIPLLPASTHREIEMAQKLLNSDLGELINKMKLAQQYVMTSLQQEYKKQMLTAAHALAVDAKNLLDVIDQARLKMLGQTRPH
T3 sequence (P49840 whole entry): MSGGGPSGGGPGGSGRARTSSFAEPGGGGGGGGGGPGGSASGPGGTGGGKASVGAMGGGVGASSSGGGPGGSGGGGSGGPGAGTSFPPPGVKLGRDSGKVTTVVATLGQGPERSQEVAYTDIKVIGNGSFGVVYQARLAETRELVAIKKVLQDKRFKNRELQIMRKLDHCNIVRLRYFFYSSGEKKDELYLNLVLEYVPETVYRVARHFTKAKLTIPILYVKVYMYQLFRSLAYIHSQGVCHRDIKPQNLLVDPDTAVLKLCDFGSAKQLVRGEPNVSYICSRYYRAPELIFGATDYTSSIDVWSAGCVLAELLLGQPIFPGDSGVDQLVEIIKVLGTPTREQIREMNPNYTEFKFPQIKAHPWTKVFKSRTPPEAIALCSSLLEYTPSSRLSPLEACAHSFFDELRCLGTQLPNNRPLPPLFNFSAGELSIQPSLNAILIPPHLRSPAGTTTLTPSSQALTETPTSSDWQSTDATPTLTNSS
Mitogen-activated protein kinase 14, sequence (Q16539 whole entry): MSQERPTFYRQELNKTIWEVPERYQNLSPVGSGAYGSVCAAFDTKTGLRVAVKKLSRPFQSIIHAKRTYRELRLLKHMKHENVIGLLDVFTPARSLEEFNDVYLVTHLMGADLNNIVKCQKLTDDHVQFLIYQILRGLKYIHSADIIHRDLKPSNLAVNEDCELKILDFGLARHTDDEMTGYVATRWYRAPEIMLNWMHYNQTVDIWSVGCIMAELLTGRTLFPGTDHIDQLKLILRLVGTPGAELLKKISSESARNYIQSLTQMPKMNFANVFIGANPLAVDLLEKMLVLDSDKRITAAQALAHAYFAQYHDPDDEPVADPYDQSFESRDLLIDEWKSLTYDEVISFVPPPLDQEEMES
Cell division cycle 7-related protein kinase, sequence (O00311 whole entry): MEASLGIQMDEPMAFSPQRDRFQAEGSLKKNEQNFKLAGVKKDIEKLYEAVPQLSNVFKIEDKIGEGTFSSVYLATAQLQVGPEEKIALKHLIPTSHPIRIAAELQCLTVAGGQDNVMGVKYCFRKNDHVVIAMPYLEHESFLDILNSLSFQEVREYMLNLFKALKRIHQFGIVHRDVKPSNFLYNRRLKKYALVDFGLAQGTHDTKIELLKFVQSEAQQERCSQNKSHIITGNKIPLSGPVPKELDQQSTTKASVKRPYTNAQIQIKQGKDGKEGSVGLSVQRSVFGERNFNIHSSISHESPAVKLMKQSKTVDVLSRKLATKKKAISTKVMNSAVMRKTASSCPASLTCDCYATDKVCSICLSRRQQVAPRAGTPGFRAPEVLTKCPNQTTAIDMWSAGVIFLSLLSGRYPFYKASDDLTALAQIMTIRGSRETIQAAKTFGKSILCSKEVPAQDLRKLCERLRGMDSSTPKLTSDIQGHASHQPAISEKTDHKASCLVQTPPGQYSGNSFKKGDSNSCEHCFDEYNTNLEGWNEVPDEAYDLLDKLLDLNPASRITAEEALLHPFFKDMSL

For `CCOc1c(F)cc(Oc2c(Cl)cnn(Cc3cccc4ccccc34)c2=O)cc1F`, the IC50 [1] was 9.19 µM (active) and the IC50 [2] was 2.37 µM (active).

With `CC(C)C(CO)NC(=O)c1cccc(-n2nc(C(C)(C)C)cc2NC(=O)Nc2cccc3ccccc23)c1` (stereo unspecified) the Ki [3] was > 3.98 µM (inactive), the Ki [4] was > 6.31 µM (inactive) and the Ki [5] was > 6.31 µM (inactive). For the same compound, the Ki [6] was > 3.98 µM (inactive), the Ki [7] was > 3.98 µM (inactive) and the Ki [8] was > 3.16 µM (inactive). The Ki [9] was > 3.98 µM (inactive), the Ki [10] was > 3.98 µM (inactive) and the Ki [11] was > 6.31 µM (inactive). For the same compound, the Ki [12] was > 3.98 µM (inactive), the Ki [13] was > 3.98 µM (inactive) and the Ki [14] was 398 nM (active) and 501 nM (active). For the same compound, the Ki [15] was > 7.94 µM (inactive), the Ki [16] was > 6.31 µM (inactive) and the Ki [17] was > 6.31 µM (inactive). The Ki [18] was > 3.98 µM (inactive), the Ki [19] was > 5.01 µM (inactive) and the Ki [20] was > 3.98 µM (inactive). For the same compound, the Ki [21] was > 3.98 µM (inactive), the Ki [22] was > 5.01 µM (inactive) and the Ki [23] was 0.316 µM (active). For the same compound, the Ki [24] was 0.398 µM (active), the Ki [25] was > 5.01 µM (inactive) and the Ki [26] was > 6.31 µM (inactive). For the same compound, the Ki [27] was > 3.98 µM (inactive), the Ki [28] was > 3.98 µM (inactive) and the Ki [29] was > 3.98 µM (inactive). For the same compound, the Ki [30] was 2.51 µM (active), the Ki [31] was > 6.31 µM (inactive) and > 5.01 µM (inactive) and the Ki [32] was > 3.98 µM (inactive). The Ki [33] was > 3.98 µM (inactive) and the Ki [34] was > 5.01 µM (inactive).

In the case of `COC(=O)C(C)Sc1ccc2nnc(-c3ccc(F)cc3)n2n1` (stereo unspecified), the AC50 [35] is reported as 3.55 µM (inconclusive), the AC50 [36] is reported as 39.8 µM (inconclusive) and the AC50 [37] is reported as 1.24 µM (active). The AC50 [38] was 5.24 µM (active).

For `Cc1cccc(CNc2cc(-c3c[nH]c4ncccc34)cc(Cl)n2)c1C`, the Ki [39] was 0.00126 µM (active), the Ki [40] was 0.00501 µM (active) and the Ki [13] was 0.0251 µM (active). The Ki [41] was 0.158 µM (active), the Ki [22] was 0.00398 µM (active) and the Ki [42] was > 10 µM (inactive). For the same compound, the Ki [26] was 0.501 µM (active) and the Ki [43] was 0.398 µM (active).

With `Cc1ccc2[nH]cc(/C=C/c3cc[n+](C)cc3)c2c1` the EC50 [44] was > 60 µM (not active), the IC50 [45] was > 99 µM (inactive) and the IC50 [46] was > 99 µM (inactive). For the same compound, the EC50 [47] was 12.2 µM (active), the IC50 [48] was > 99 µM (inactive) and the AC50 [49] was 4.88 µM (active). The IC50 [50] was > 99 µM (inactive), the IC50 [51] was > 59.6 µM (inactive) and the EC50 [52] was 9.85 µM (active). For the same compound, the IC50 [53] was > 100 µM (inactive), the EC50 [54] was 1.43 µM (active) and the AC50 [55] was 1.49 µM (active). For the same compound, the EC50 [56] was 13.6 µM (active), the IC50 [57] was 49.2 µM (inactive) and the IC50 [58] was 3.49 µM (active).
